Results taken from PMC9814544 (Communications Chemistry, 2020).
Entries after “also recorded” stand apart in the source; their conditions may differ.

Tests used:
[1] = Metabolic stability in rat liver microsomes; assay type: in vitro ADME; settings: in vitro clearance as % hepatic blood flow, n = 1
Protocol: The metabolic degradation of the test compound is assayed at 37 °C with microsomes. The final incubation volume of 100 µl per time point contains TRIS buffer pH 7.6 at RT (0.1 M), magnesium chloride (5 mM), microsomal protein (1 mg/ml or 0.5 mg/ml depending on species) and the test compound at a final concentration of 1 µM.
Following a short preincubation period at 37 °C, the reactions were initiated by addition of beta-nicotinamide adenine dinucleotide phosphate, reduced form (NADPH, 1 mM) and terminated by transfering an aliquot into solvent after different time points. The quenched incubations are pelleted by centrifugation (10000 g, 5 min). An aliquot of the supernatant is assayed by LC-MS/MS for the amount of parent compound. The slope of the semi logarithmic plot of the concentration-time profile determines the half-life. The clearance is calculated by upscaling considering the amount of protein in the incubation, microsomal recovery and liver weight and normalized to the hepatic blood flow of the respective species. The number of experiments for BI-0115 is n = 1.

[2] = AF dye fluorescence quenching assay; settings: at 30 µM; n = 1
Protocol: Employing filter criteria like < 65% control in the primary assay and a minimum difference of 30% to the SR-B1 counter screen, about 3300 compounds remained. These compounds were tested in concentration response using both assay formats (Supplementary Fig. 1). To qualify the identified compounds further we developed additional assays with the goal to identify compounds that merely quenched the AF dye fluorescence. In this assay, the fluorescence signal of human AF647- or AF594-labeled oxLDL was recorded in the presence and absence of compound. Only compounds without relevant quenching were subsequently selected for further analysis.
Furthermore, quenching assays were established to eliminate compounds showing quenching of the AF594 or AF647 dye fluorescence. For this, human oxLDL labeled with either AF594 or AF647 was incubated with compound and the fluorescence signal with and without compound was measured to determine the quenching of the fluorescence. For both compounds quenching of fluorescence has been tested with n = 1.

[3] = PAMPA passive permeability; assay type: in vitro ADME
From the text: The PAMPA assay provides data on the passive permeability of test compounds through immobilized artificial phospholipid membranes. The method used was extensively described previously. The number of experiments for BI-0115 is n = 1.

[4] = tested on: T1, LOX129; experiment: STD-NMR binding, LOX129; parameters: species or system human; settings: 5 µM LOX129, 250 µM compound; n = 1
T1 construct: 6His-tag with thrombin cleavage site (N, cleaved yes); made in house; host or cells: E. coli SHuffle cells (New England BioLabs), pET28a
Protocol: Selected cluster representatives were analyzed by multiple biophysical methods to further validate and characterize the identified compounds.
STD NMR binding experiments[51] were performed in 2.5 mm NMR tubes on a Bruker AVII+ 600 MHz spectrometer equipped with a 5 mm cryo-TCI probe and z-gradients. 5 μM LOX129 was incubated with 250 μM BI-0115 in 25 mM Na-phosphate, 100 mM NaCl pH 7.5 in D2O at 298 K and a total d6-DMSO concentration of 1%. The on- and off-resonance spectra were recorded in an interleaved fashion with 256 transients, respectively. Saturation was achieved by irradiation with a Gaussian pulse train for 3 s at resonance frequencies of 100 Hz and 20 kHz, respectively. Residual protein signals were suppressed by employing a 30 ms spin lock pulse prior to acquisition. Water suppression was achieved by a WATERGATE sequence employing a double gradient echo[53]. The signal intensity in the saturation transfer difference spectrum was normalized by the following equation to yield the %STD value: %STD = 100 * (((I(0)-I(sat))/I(0))), where I(0) is the intensity of one signal in the off-resonance and I(sat) the intensity of one signal in the on-resonance spectrum, respectively. Topspin 3.0 (Bruker Biospin) was used to process and analyze data.

[5] = tested on: T2, LOX129 (LOX-1); experiment: Native ESI-MS of LOX-1 with ligand; assay type: binding, human; settings: Vc = 60V; up to 10 eq ligand
T2 construct: 6His-tag with thrombin cleavage site (N, cleaved yes); made in house; host or cells: E. coli SHuffle cells (New England BioLabs), pET28a
Protocol: This is in agreement with the biophysical data obtained so far. The ITC measurements gave a stoichiometry of protein:ligand of 1.8 which fits to multiples of a 2:1 complex. To confirm that the crystallographically observed tetrameric arrangement exists also in solution native Electrospray-Ionization Mass Spectrometry (ESI-MS) analysis was used. A MS experiment using covalent dimeric LOX129 under denaturing conditions was performed giving a mass of 33773 Da, corresponding to a mass difference of 13 Da to the theoretical molecular weight of 33786 Da (Supplementary Fig. 9). This mass difference corresponds to the three intramolecular and the one intermolecular disulfide bonds (14 Da). MS analysis under non denaturing conditions (Fig. 4a) measured LOX129 mainly as a dimer. Only traces of the tetrameric state were detectable. A binding experiment of BI-0115 to LOX-1 was performed using soft MS tuning parameters (Vc = 40V) in order to maintain BI-0115 interactions in the gas phase.
Mass spectrometry experiments were carried out on an electrospray time-of-flight mass spectrometer (LCT, Waters, Manchester, UK) equipped with an automated chip-based nanoESI device (Triversa Nanomate, Advion Biosciences, Ithaca, NY). […]

[6] = tested on: panel of GPCRs, drug transporters, ion channels, nuclear receptors, kinases, and other non-kinase enzymes; experiment: Eurofins CEREP off-target panel; settings: at 10 µM; measured once
Protocol: To assess potential off-target liabilities, BI-0115 was tested on a panel of assays across various key pharmacological target classes (GPCRs, drug transporters, ion channels, nuclear receptors, kinases, and other non-kinase enzymes; Eurofins CEREP, France). […] Although the compound solubility is low, it was sufficient to get a saturable dose response in the cellular assay and the various biophysical assays. Permeability, as measured with the PAMPA assay is good.

micr. Stab rLM [1]: 95 %QH | Papp ([3]; PAMPA, n = 1): 1.5 ×10⁻⁶ cm/s | Permeability, PAMPA assay ([3]; in words): good | STD-NMR [4]: binding | CEREP profile [6]: very clean profile; also recorded: clean
SMILES: CCCN1C(=O)c2ccc(Cl)cc2Nc2ncccc21 [BI-0115]
Quench Assay [2]: −9.1% | ligand induced tetramerization, increase of the 16+ charge state [5]: up to 33%
